Experiments:
Format in all cases: cell-based, human
[1] = Dual luciferase reporter gene assay in HeLa cells, negative control (empty) reporter vector; settings: 24 h after transfection
From the text: The dual luciferase (firefly and Renilla) reporter miRNA target clone for the DOHH 3′-UTR (catalogue no. HmiT020194-MT01) and the negative control vector (catalogue no. CmiT000001-MT01), both based on the PETZ-MT01 vector containing a SV40 promoter upstream of the hLuc gene, and a CMV reporter upstream of the hRLuc gene, were sourced from Genecopoeia™ (Rockville, USA). For miRNA target clones, the DOHH 3′-UTR was inserted downstream of the SV40 promoter/firefly luciferase reporter gene. Firefly luciferase was normalised to Renilla′ luciferase for expression and transfection efficiency.
(§1) HeLa cells were seeded in 12-well plates and co-transfected using Lipofectamine 2000 (Invitrogen) with 100 ng of either the negative control (empty), DOHH 3′-UTR or ERBB-2 3′-UTR reporter construct (Genecopoeia™) and 1-2 nM final concentration of pre-miR-331-3p, pre-miR-642-5p, a combination of pre-miR-331-3p and pre-miR-642-5p, or pre-miR-NC per well. Lysates were assayed for Firefly and Renilla luciferase activities 24 h after transfection using the Dual Luciferase Reporter Assay System (Promega) and a Fluostar OPTIMA microplate reader (BMG Labtech), and firefly luciferase activities normalised to Renilla luciferase activities to obtain relative reporter gene activity.

eIF5A = assay: Immunoblot of cytoplasmic eIF5A in transfected HeLa cells; settings: HeLa cells transiently over expressing miRNA, total anti-eIF5A antibody, data not shown
From the text: Endogenous DOHH mRNA was repressed by both hsa-miR-331-3p and hsa-miR-642-5p in HeLa cells (FIG. 3A).

[2] = tested on: 182 nucleotide element of the DOHH 3′-UTR; assay: Reporter gene assay in LNCaP and C4-2B prostate cancer cells with 3′UTR, 3′UTR ELEMENT and 3′UTR MINUS ELEMENT constructs; settings: for Down-regulation of reporter activity from “3′UTR MINUS ELEMENT” construct: LNCaP and C4-2B cells, 182 nucleotide element deleted; for Reporter activity from “3′UTR” and “3′UTR ELEMENT” constructs: both LNCaP and C4-2B cells, relative to miR-NC
Method: (§2) Briefly, three reporter gene constructs were prepared using a pmiR-REPORT vector (Ambion) as the backbone. The first construct was the construct described in Example 2, containing the DOHH 3′-UTR downstream of the firefly luciferase reporter gene (labelled “3′UTR”). The second construct contained a DOHH 3′-UTR in which the 182 base pair element had been deleted, downstream of the firefly luciferase reporter gene (labelled “3′UTR MINUS ELEMENT”). The third construct contained the 182 nucleotide element downstream of the firefly luciferase reporter gene (labelled “3′UTR ELEMENT”) (FIG. 6A).
The effect of hsa-miR-331-3p and/or hsa-miR-642-5p on expression from the “3′UTR”, “3′UTR ELEMENT” and “3′UTR MINUS ELEMENT” construct in LNCaP and C4-2B prostate cancer cells was then assessed using the same transfection and assay techniques.

[3] = tested on: 182 nucleotide element of the DOHH 3′-UTR; assay: Reporter gene assay in HeLa cells with 3′UTR, 3′UTR ELEMENT and 3′UTR MINUS ELEMENT constructs; settings: for Reporter gene expression from “3′UTR MINUS ELEMENT” construct: 182 nucleotide element deleted; for Firefly luciferase expression from “3′UTR” and “3′UTR ELEMENT” constructs: versus NC
Method: To confirm that the regions in the 3′UTR of DOHH that were predicted to be targeted by hsa-miR-331-3p and hsa-miR-642-5p (see Example 1 and FIG. 1) were indeed targeted, reporter constructs with and without a 182 nucleotide element containing the predicted targeted regions were generated and used in reporter gene assays.
as §2
In the first assay, performed essentially as described in Example 2 by transfection of HeLa cells, the firefly luciferase expression from the “3′UTR” and “3′UTR ELEMENT” constructs was assessed in the presence of hsa-miR-331-3p, hsa-miR-642-5p, a combination of the two or vehicle only (NC).
In the second assay performed by transfecting HeLa cells, the expression of the reporter gene from the “3′UTR MINUS ELEMENT” construct was assessed in the presence of hsa-miR-331-3p and/or hsa-miR-642-5p.

HeLa cells = assay: xCELLigence cell proliferation assay; settings: 5000 transfected cells, monitored over 90 hour period, compared to miRNA negative control
Method: The effect of transient miRNA over-expression in HeLa cells on cell proliferation was investigated using the xCELLigence™ System (Roche). Briefly, HeLa cells were grown and transfected with the miRNA negative control, hsa-miR-331-3p and/or hsa-miR-642-5p precursors as described above. Transfected HeLa cells were then trypsinised and counted using the Countess™ Automated cell counter and 5000 transiently transfected HeLa cells were plated in quadruplicate into 16 well E-plates. The cells monitored over a 90 hour period in real time according to the manufacturer's instructions.

ERBB-2 3′-UTR = assay: Dual luciferase reporter gene assay in HeLa cells, ERBB-2 3′-UTR reporter (positive control); settings: 24 h after transfection, compared to miR-NC
Method: as §1

Which “Reporter activity of negative control reporter vector” value [1] does the source give for “hsa-miR-331-3p: human miR-331-3p, 5′-GCCCCUGGGCCUAUCCUAGAA-3′ (SEQ ID NO:4); transfected as Ambion Pre-miR precursor PM10881 (listed as RNA, chemistry not given here; listed as Homo sapiens)” here?
Its value is “no significant change in reporter activity”.

What about the “Cytoplasmic levels of eIF5A” value (eIF5A) of the same substance?
Its value is “unchanged cytoplasmic levels of eIF5A”.

And the “Down-regulation of reporter activity from “3′UTR MINUS ELEMENT” construct” value [2]?
Its value is “not observed”.

What about the “Reporter activity from “3′UTR” and “3′UTR ELEMENT” constructs” value [2] of the same substance?
The value was “significantly down-regulated reporter activity”.

What about the “Reporter gene expression from “3′UTR MINUS ELEMENT” construct” value [3] of the same substance?
Its value is “no repression of the reporter gene”.

What about the “Firefly luciferase expression from “3′UTR” and “3′UTR ELEMENT” constructs” value [3] of the same substance?
Its value is “repression of firefly luciferase expression”.

What about the “HeLa cell proliferation (xCELLigence)” value (HeLa cells) of the same substance?
The value was “inhibit the proliferation of HeLa cells to similar degrees”.

And the “ERBB-2 3′-UTR reporter activity” value (ERBB-2 3′-UTR)?
Its value is “significant reduction in reporter activity”.

With “hsa-miR-642-5p: human miR-642-5p, 5′-GUCCCUCUCCAAAUGUGUCUUG-3′ (SEQ ID NO:5); transfected as Ambion Pre-miR precursor PM11477 (listed as RNA, chemistry not given here; listed as Homo sapiens)” as the substance, how does the “Cytoplasmic levels of eIF5A” value (eIF5A) read?
Its value is “unchanged cytoplasmic levels of eIF5A”.

What about the “Down-regulation of reporter activity from “3′UTR MINUS ELEMENT” construct” value [2] of the same substance?
Its value is “not observed”.

And the “Reporter activity from “3′UTR” and “3′UTR ELEMENT” constructs” value [2]?
The value was “significantly down-regulated reporter activity”.

And the “Reporter gene expression from “3′UTR MINUS ELEMENT” construct” value [3]?
The value was “no repression of the reporter gene”.

What about the “Firefly luciferase expression from “3′UTR” and “3′UTR ELEMENT” constructs” value [3] of the same substance?
Its value is “repression of firefly luciferase expression”.

What about the “HeLa cell proliferation (xCELLigence)” value (HeLa cells) of the same substance?
Its value is “inhibit the proliferation of HeLa cells to similar degrees”.

Reference: patent US20150126581A1, “MicroRNAs and Uses Thereof” (The University of Western Australia, priority 2012, published 2015)
